Columns and labels:
Type in all cases: biochemical
KAT6A Full length enzyme = KAT6A Full length enzyme (Homo sapiens (Human), UniProt Q92794); assay: KAT6A assay (SAMDI-MS acetylation of H3 1-21 peptide); settings: Morrison equation fit; replicate number in parentheses; read-out: KAT6A Ki (nM) (replicate number)
[1] = target: KAT7+JADE1+EAF6+ING5 4 protein complex (Homo sapiens (Human), UniProt O95251); assay: KAT7 JADE1 assay (SAMDI-MS acetylation of H3 1-21 peptide); settings: Morrison equation fit; replicate number in parentheses; read-out: KAT7 JADE1 Ki (nM) (replicate number)
KAT8 Full length enzyme = KAT8 Full length enzyme (Homo sapiens (Human), UniProt Q9H7Z6); assay: KAT8 assay (SAMDI-MS acetylation of H3 1-21 peptide); settings: Morrison equation fit; replicate number in parentheses; read-out: KAT8 Ki (nM) (replicate number)
KAT5 Full length enzyme = KAT5 Full length enzyme (Homo sapiens (Human), UniProt Q92993); assay: KAT5 assay (SAMDI-MS acetylation of H4 1-21 peptide); settings: Morrison equation fit; replicate number in parentheses; read-out: KAT5 Ki (nM) (replicate number)
Chain of KAT5 Full length enzyme (Q92993 whole entry): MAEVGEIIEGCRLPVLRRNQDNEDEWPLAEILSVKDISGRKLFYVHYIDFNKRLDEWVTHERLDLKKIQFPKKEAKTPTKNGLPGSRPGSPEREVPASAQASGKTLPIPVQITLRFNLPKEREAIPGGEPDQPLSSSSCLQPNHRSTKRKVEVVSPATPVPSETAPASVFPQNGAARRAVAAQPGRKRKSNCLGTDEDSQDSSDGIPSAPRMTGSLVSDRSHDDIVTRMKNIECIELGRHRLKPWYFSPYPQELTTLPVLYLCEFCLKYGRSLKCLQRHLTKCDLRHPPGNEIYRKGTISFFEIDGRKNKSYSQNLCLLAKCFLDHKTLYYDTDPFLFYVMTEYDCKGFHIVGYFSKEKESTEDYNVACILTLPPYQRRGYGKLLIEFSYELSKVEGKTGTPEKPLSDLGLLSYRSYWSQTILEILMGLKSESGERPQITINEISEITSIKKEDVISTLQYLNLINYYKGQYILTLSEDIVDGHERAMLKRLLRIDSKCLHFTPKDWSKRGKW

Chain of KAT6A Full length enzyme (Q92794 other isoform, or with tags, fused parts or gaps): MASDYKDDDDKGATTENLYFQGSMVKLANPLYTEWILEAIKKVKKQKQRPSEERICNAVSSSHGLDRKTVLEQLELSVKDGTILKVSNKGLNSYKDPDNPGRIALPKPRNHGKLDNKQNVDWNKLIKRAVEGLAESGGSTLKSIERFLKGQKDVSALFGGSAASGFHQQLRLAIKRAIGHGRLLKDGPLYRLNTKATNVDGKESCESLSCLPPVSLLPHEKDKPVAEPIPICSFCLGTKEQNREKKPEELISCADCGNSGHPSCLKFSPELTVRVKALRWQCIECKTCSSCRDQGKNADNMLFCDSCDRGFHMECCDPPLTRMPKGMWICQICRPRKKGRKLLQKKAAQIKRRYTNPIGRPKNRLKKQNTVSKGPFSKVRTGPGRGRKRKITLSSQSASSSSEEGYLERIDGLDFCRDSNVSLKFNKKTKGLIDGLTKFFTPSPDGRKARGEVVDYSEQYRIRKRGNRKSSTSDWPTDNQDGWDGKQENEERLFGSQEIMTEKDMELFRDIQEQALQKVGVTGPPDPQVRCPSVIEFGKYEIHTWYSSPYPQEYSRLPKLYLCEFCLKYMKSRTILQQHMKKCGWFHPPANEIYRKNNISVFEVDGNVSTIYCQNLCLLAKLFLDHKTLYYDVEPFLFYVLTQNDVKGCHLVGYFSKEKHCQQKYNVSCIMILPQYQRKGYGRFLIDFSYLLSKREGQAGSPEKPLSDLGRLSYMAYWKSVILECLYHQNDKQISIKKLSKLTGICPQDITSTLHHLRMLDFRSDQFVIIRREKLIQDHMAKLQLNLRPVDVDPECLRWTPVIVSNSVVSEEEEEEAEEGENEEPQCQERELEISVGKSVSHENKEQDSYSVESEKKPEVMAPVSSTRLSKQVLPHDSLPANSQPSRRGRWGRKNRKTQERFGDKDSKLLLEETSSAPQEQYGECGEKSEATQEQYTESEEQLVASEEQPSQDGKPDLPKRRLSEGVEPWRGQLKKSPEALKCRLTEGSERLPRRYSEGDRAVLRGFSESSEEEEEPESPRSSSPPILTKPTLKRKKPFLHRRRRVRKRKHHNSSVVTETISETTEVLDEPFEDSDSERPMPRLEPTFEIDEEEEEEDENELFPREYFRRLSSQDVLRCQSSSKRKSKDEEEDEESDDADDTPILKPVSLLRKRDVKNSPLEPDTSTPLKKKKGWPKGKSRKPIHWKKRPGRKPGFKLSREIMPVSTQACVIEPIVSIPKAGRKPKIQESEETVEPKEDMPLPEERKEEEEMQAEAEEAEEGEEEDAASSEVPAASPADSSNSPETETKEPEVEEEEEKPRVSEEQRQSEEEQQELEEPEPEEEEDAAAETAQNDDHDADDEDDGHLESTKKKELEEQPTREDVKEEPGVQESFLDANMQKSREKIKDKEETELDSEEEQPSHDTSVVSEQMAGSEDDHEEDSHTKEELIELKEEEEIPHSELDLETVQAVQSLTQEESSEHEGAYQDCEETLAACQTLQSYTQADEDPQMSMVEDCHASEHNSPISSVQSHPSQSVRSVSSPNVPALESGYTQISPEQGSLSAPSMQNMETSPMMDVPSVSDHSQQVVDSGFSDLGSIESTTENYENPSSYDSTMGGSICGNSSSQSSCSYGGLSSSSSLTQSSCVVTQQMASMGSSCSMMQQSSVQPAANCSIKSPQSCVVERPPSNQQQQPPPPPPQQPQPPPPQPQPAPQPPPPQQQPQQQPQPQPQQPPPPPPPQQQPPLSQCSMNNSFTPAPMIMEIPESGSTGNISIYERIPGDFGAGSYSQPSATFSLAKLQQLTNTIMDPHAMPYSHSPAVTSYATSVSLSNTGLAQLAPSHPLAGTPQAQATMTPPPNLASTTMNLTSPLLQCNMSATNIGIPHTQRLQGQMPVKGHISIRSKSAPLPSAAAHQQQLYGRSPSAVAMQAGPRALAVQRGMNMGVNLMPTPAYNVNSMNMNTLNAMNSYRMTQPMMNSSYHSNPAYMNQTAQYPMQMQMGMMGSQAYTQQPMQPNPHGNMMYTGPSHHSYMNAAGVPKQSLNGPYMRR
Chain of KAT8 Full length enzyme (Q9H7Z6 whole entry): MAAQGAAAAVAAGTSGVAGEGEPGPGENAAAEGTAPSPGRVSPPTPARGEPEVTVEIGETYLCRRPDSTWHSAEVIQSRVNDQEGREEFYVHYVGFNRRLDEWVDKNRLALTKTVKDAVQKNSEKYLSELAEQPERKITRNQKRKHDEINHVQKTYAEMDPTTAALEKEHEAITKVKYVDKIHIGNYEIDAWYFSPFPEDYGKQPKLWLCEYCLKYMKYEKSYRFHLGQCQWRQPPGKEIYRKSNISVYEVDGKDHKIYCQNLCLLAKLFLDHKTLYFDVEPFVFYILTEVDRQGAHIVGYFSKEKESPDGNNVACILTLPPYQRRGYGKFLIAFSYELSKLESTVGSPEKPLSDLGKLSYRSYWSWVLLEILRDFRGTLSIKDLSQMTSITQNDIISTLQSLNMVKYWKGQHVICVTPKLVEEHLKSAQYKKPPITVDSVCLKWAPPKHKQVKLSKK

| SMILES | Ki (KAT6A Full length enzyme) | Ki [1] | Ki (KAT8 Full length enzyme) | Ki (KAT5 Full length enzyme) |
| --- | --- | --- | --- | --- |
| COc1cc2c(NS(=O)(=O)c3c(OC)cccc3OC)noc2cc1Nc1cc(C2CC(F)(F)C2)[nH]n1 [Example 117, N-(6-{[5-(3,3-difluorocyclobutyl)-1H-pyrazol-3-yl]amino}-5-methoxy-1,2-benzoxazol-3-yl)-2,6-dimethoxybenzene-1-sulfonamide] | 5.3 nM | 25.1 nM | 10000 nM | 360 nM |
| CCOc1cc(C(F)F)ccc1S(=O)(=O)Nc1noc2cc(Nc3cc(C4CC4)n[nH]3)c(F)c(OC)c12 [Example 101, N-{6-[(3-cyclopropyl-1H-pyrazol-5-yl)amino]-5-fluoro-4-methoxy-1,2-benzoxazol-3-yl}-4-(difluoromethyl)-2-ethoxybenzene-1-sulfonamide] | 5.3 nM | 50.7 nM | 10300 nM | 1230 nM |
| COc1cc2c(NS(=O)(=O)c3c(OC)cc(-c4ncco4)cc3OC)noc2cc1Nc1cc(C2CC2)n[nH]1 [Example 08, N-{6-[(3-cyclopropyl-1H-pyrazol-5-yl)amino]-5-methoxy-1,2-benzoxazol-3-yl}-2,6-dimethoxy-4-(1,3-oxazol-2-yl)benzene-1-sulfonamide] | 1.2 nM | 12.8 nM | 1620 nM | 46.9 nM |
| CCn1nc(Nc2cc3onc(NS(=O)(=O)c4c(OC)cccc4OC)c3cc2OC)cc1C1CC1 [Example 113, N-{6-[(5-cyclopropyl-1-ethyl-1H-pyrazol-3-yl)amino]-5-methoxy-1,2-benzoxazol-3-yl}-2,6-dimethoxybenzene-1-sulfonamide] | 348 nM | 9090 nM | > 13000 nM | 50000 nM |
| COc1cc2c(NS(=O)(=O)c3c(OC)cc(-c4nccc(C(C)N(C)C)n4)cc3OC)noc2cc1Nc1cc(C2CC2)n[nH]1 (centres unmarked) [Example 227, N-{6-[(3-cyclopropyl-1 H-pyrazol-5-yl)amino]-5-methoxy-1,2-benzoxazol-3-yl}-4-{4-[1-(dimethylamino)ethyl]pyrimidin-2-yl}-2,6-dimethoxybenzene-1-sulfonamide] | 0.4 nM | 6.9 nM | 3490 nM | 218 nM |
| COc1cc2c(NS(=O)(=O)c3c(OC)cc(-c4cnn(C)n4)cc3OC)noc2cc1Nc1cc(C2CC2)n[nH]1 [Example 212, N-{6-[(3-cyclopropyl-1 H-pyrazol-5-yl)amino]-5-methoxy-1,2-benzoxazol-3-yl}-2,6-dimethoxy-4-(2-methyl-2H-1,2,3-triazol-4-yl)benzene-1-sulfonamide] | 0.7 nM | 11.1 nM | 1410 nM | 159 nM |
| COc1cc2c(NS(=O)(=O)c3c(OC)cccc3OC)noc2cc1Nc1cc(C(F)F)n[nH]1 [Example 115, N-(6-{[3-(difluoromethyl)-1H-pyrazol-5-yl]amino}-5-methoxy-1,2-benzoxazol-3-yl)-2,6-dimethoxybenzene-1-sulfonamide] | 0.1 nM | 32.2 nM | 8920 nM | 101 nM |
| CCn1cnc(Nc2cc3onc(NS(=O)(=O)c4c(OC)cccc4OC)c3cc2OC)c1 [Example 75, N-{6-[(1-ethyl-1H-imidazol-4-yl)amino]-5-methoxy-1,2-benzoxazol-3-yl}-2,6-dimethoxybenzene-1-sulfonamide] | 22.3 nM | 501 nM | > 11200 nM | 2210 nM |
| COc1cc2c(NS(=O)(=O)c3c(OC)cc(-c4ccn(C)n4)cc3OC)noc2cc1Nc1cc(C2CC2C)n[nH]1 (single isomer, unassigned) [Example 242, 2,6-dimethoxy-N-(5-methoxy-6-{[3-(2-methylcyclopropyl)-1 H-pyrazol-5-yl]amino}-1,2-benzoxazol-3-yl)-4-(1-methyl-1H-pyrazol-3-yl)benzene-1-sulfonamide] | 0.9 nM | 9.2 nM | 439 nM | 34 nM |
| COc1cc2c(NS(=O)(=O)c3c(OC)cccc3OC)noc2cc1Nc1cc([C@@H](C)O)n[nH]1 (single isomer, unassigned) [Example 87, N-(6-{[3-(1-hydroxyethyl)-1H-pyrazol-5-yl]amino}-5-methoxy-1,2-benzoxazol-3-yl)-2,6-dimethoxybenzene-1-sulfonamide] | 23.5 nM | 1230 nM | > 13000 nM | 1800 nM |
| COc1cc2c(NS(=O)(=O)c3c(OC)cc(-c4ncc(CN(C)C)cn4)cc3OC)noc2cc1Nc1cc(C2CC2)n[nH]1 [Example 223, N-{6-[(3-cyclopropyl-1H-pyrazol-5-yl)amino]-5-methoxy-1,2-benzoxazol-3-yl}-4-{5-[(dimethylamino)methyl]pyrimidin-2-yl}-2,6-dimethoxybenzene-1-sulfonamide] | 0.4 nM | 4 nM | 679 nM | 25.4 nM |
| CCc1cc(Nc2cc3onc(NS(=O)(=O)c4cccc(-c5ccc(OC)cc5)c4)c3cc2OC)[nH]n1 [Example 137, N-{6-[(3-ethyl-1 H-pyrazol-5-yl)amino]-5-methoxy-1,2-benzoxazol-3-yl}-4′-methoxy[1,1′-biphenyl]-3-sulfonamide] | 12.9 nM | 9.7 nM | > 13000 nM | 1650 nM |
| CCc1cc(Nc2cc3onc(NS(=O)(=O)c4ccc5c(c4)OCCO5)c3cc2OC)n[nH]1 [Example 129, N-{6-[(5-ethyl-1 H-pyrazol-3-yl)amino]-5-methoxy-1,2-benzoxazol-3-yl}-2,3-dihydro-1,4-benzodioxine-6-sulfonamide] | 56.8 nM | 244 nM | > 13000 nM | 5630 nM |
| COc1cc2c(NS(=O)(=O)c3c(OC)cc([C@@H]4CCCO4)cc3OC)noc2cc1Nc1cc(C2CC2)n[nH]1 [Example 140, N-{6-[(3-cyclopropyl-1H-pyrazol-5-yl)amino]-5-methoxy-1,2-benzoxazol-3-yl}-2,6-dimethoxy-4-[(2S)-oxolan-2-yl]benzene-1-sulfonamide] | 1.5 nM | 11.4 nM | 911 nM | 156 nM |
| CCc1cc(Nc2cc3onc(NS(=O)(=O)c4c(OC)cccc4OC)c3cc2OC)nn1C [Example 73, N-{6-[(5-ethyl-1-methyl-1H-pyrazol-3-yl)amino]-5-methoxy-1,2-benzoxazol-3-yl}-2,6-dimethoxybenzene-1-sulfonamide] | 0.7 nM | 31.3 nM | 4330 nM | 287 nM |
| CCc1cc(Nc2cc3onc(NS(=O)(=O)c4cccc(Oc5ccc(C)cc5)c4)c3cc2OC)n[nH]1 [Example 126, N-{6-[(5-ethyl-1 H-pyrazol-3-yl)amino]-5-methoxy-1,2-benzoxazol-3-yl}-3-(4-methylphenoxy)benzene-1-sulfonamide] | 52.1 nM | 237 nM | > 13000 nM | 5040 nM |
| COc1cccc(F)c1S(=O)(=O)Nc1noc2cc(Nc3cc(C4CC4)n[nH]3)c(F)c(OC)c12 [Example 81, N-{6-[(3-cyclopropyl-1H-pyrazol-5-yl)amino]-5-fluoro-4-methoxy-1,2-benzoxazol-3-yl}-2-fluoro-6-methoxybenzene-1-sulfonamide] | 3.5 nM | 31.6 nM | > 13000 nM | 336 nM |
| COc1cc2c(NS(=O)(=O)c3c(OC)cccc3OC)noc2cc1Nc1ncc(C)cn1 [Example 110, 2,6-dimethoxy-N-{5-methoxy-6-[(5-methylpyrimidin-2-yl)amino]-1,2-benzoxazol-3-yl}benzene-1-sulfonamide] | 44.1 nM | 2820 nM | > 13000 nM | 6610 nM |
| COc1cc2c(NS(=O)(=O)c3c(OC)cc(C4COCCN4C)cc3OC)noc2cc1Nc1cc(C2CC2)[nH]n1 (single isomer, unassigned) [Example 180, N-{6-[(5-cyclopropyl-1 H-pyrazol-3-yl)amino]-5-methoxy-1,2-benzoxazol-3-yl}-2,6-dimethoxy-4-(4-methylmorpholin-3-yl)benzene-1-sulfonamide] | 1.7 nM | 6.5 nM | 3370 nM | 94.8 nM |
| CCc1cc(Nc2cc3onc(NS(=O)(=O)c4ccc(OC)c(F)c4)c3cc2OC)n[nH]1 [Example 133, N-{6-[(5-ethyl-1 H-pyrazol-3-yl)amino]-5-methoxy-1,2-benzoxazol-3-yl}-3-fluoro-4-methoxybenzene-1-sulfonamide] | 78.7 nM | 321 nM | > 13000 nM | 6210 nM |
| COc1cc2c(NS(=O)(=O)c3c(OC)cc(C(C)N4CC(F)C4)cc3OC)noc2cc1Nc1cc(C2CC2)[nH]n1 (single isomer, unassigned) [Example 209, N-{6-[(5-cyclopropyl-1 H-pyrazol-3-yl)amino]-5-methoxy-1,2-benzoxazol-3-yl}-4-[1-(3-fluoroazetidin-1-yl)ethyl]-2,6-dimethoxybenzene-1-sulfonamide] | 1.4 nM | 7.7 nM | 2400 nM | 106 nM |
| COc1cc2c(NS(=O)(=O)c3c(OC)cccc3OC)noc2cc1Nc1cc(C2CCCC2)n[nH]1 [Example 85, N-{6-[(3-cyclopentyl-1H-pyrazol-5-yl)amino]-5-methoxy-1,2-benzoxazol-3-yl}-2,6-dimethoxybenzene-1-sulfonamide] | 4.7 nM | 33.4 nM | 3380 nM | 225 nM |
| COc1cc2c(NS(=O)(=O)c3c(OC)cc(-c4ccccc4)cc3OC)noc2cc1Nc1cc(C2CC2)n[nH]1 [Example 119, N-{6-[(3-cyclopropyl-1H-pyrazol-5-yl)amino]-5-methoxy-1,2-benzoxazol-3-yl}-3,5-dimethoxy[1,1′-biphenyl]-4-sulfonamide] | 0.2 nM | 3.6 nM | 156 nM | 19.4 nM |

Source: patent US20250122183A1 (Pfizer Inc., priority 2023, published 2025)
